Measurements: ChEMBL document CHEMBL5335830, “Unusual Sesquiterpenes from Streptomyces olindensis DAUFPE 5622” (J Nat Prod, 2024)
The source made the active and inactive calls.

Experiments:
[1] = system: Colon adenocarcinoma cell line; assay: Cytotoxicity against human Colon adenocarcinoma cells; assay type: functional, cell-based
Escherichia coli = assay: Antimicrobial activity against Escherichia coli; assay type: functional, organism-based
Bacillus subtilis = assay: Antimicrobial activity against Bacillus subtilis; assay type: functional, organism-based
Candida albicans = assay: Antifungal activity against Candida albicans; assay type: functional, organism-based

Measured: Activity

CC1=CC(=O)C[C@H]2[C@@H](C)[C@@](C)(CO)CC[C@]12C
inactive: all assays above
